Reference: PubChem BioAssay (NCI)
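Compound exposure: 48 hours, 5 concentrations, 96-well plates. GI50: concentration for 50% inhibition of growth. The concentration for full growth arrest is given as TGI.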 Where a SMILES comes first, the peptide text is derived from it.

What was measured:
Assay in all cases: NCI anticancer screen, dose series, 48 h
DMS 273 small cell lung = test system: DMS 273 small cell lung
EKVX NSCLC = test system: EKVX NSCLC
HT29 colon = test system: HT29 colon
M19-MEL melanoma = test system: M19-MEL melanoma
NCI-H522 lung = test system: NCI-H522 lung
SK-OV-3 ovarian = test system: SK-OV-3 ovarian
SN12C renal = test system: SN12C renal
U251 CNS = test system: U251 CNS
ACHN renal = test system: ACHN renal
DU-145 prostate = test system: DU-145 prostate
HS 578T breast = test system: HS 578T breast

SMILES | TGI (DMS 273 small cell lung) | TGI (EKVX NSCLC) | TGI (HT29 colon) | TGI (M19-MEL melanoma) | TGI (NCI-H522 lung) | TGI (SK-OV-3 ovarian) | TGI (SN12C renal) | TGI (U251 CNS) | GI50 (NCI-H522 lung) | TGI (ACHN renal) | TGI (DU-145 prostate) | TGI (HS 578T breast)
C=C1C(=O)O[C@@H]2[C@H]3O[C@]3(C)CCC=C(C)CC[C@@H]12 | > 60.3 µM | 39.2 µM | 68.8 µM | 33.7 µM | 17.1 µM | 131 µM | 50.2 µM | 88.6 µM | – | – | – | –
CC1=C2C(O)C(C(C)C(=O)NCC(C)C)CCC2(C)C=CC1=O (configuration not stated) | > 100 µM | > 100 µM | > 100 µM | > 100 µM | > 100 µM | – | > 100 µM | > 100 µM | – | – | – | –
CC1NC(=O)CNC(=O)CNC(=O)C(Cc2ccc(O)cc2)NC(=O)C(C(C)C)NC(=O)C(C)NC1=O (configuration not stated) (cyclo(GGAAVY); configuration not given here) | > 100 µM | > 100 µM | > 100 µM | > 100 µM | > 100 µM | > 100 µM | > 100 µM | > 100 µM | > 100 µM | – | – | –
NC(=S)/N=C/c1c(O)c2ccccc2oc1=O | > 100 µM | > 100 µM | > 100 µM | > 100 µM | > 100 µM | > 100 µM | > 100 µM | > 100 µM | – | > 100 µM | – | –
S=c1ssc2c3ssc(=S)c3n(Cc3ccccc3)c12 | – | > 100 µM | > 100 µM | – | > 100 µM | > 100 µM | > 100 µM | > 100 µM | – | > 100 µM | > 100 µM | > 100 µM
CC1=C(/C=C/C(C)=C/C=C/C(C)=C/C(=O)OCC2OC(n3cc(F)c(=O)[nH]c3=O)CC2OC(=O)/C=C(C)/C=C/C=C(C)/C=C/C2=C(C)CCCC2(C)C)C(C)(C)CCC1 (configuration not stated) | – | > 100 µM | > 100 µM | – | 28.2 µM | > 100 µM | > 31.6 µM | > 54.1 µM | – | > 48.3 µM | > 46.3 µM | > 68.8 µM
CCCCCC(CN1CCOCC1)C(=O)/C=C/c1ccccc1 (configuration not stated) | 6.1 µM | 22.5 µM | 10.3 µM | 7.05 µM | – | 11.8 µM | 10.5 µM | 9.19 µM | – | – | – | –
CCC1(C)C=Cc2c(cc(OC)c3c(=O)c4ccccc4n(C)c23)O1 (configuration not stated) | – | > 10 µM | > 10 µM | – | > 10 µM | > 10 µM | > 10 µM | > 10 µM | – | > 10 µM | > 10 µM | > 10 µM
O=C1C=CC(=O)c2c1ccc1c3ccccc3n(-c3ccccn3)c21 | > 100 µM | 43.4 µM | 77.1 µM | 41.6 µM | 8.67 µM | > 100 µM | > 100 µM | > 100 µM | – | 35.6 µM | – | –
c1ccc(N=C2c3ccccc3CN2c2ccccc2)cc1 | – | > 100 µM | > 100 µM | – | > 100 µM | > 100 µM | > 100 µM | > 100 µM | – | > 100 µM | > 100 µM | > 100 µM
COc1ccc(OC)c(C2CCc3nc4nc(N)nc(N)c4cc3C2)c1 (configuration not stated) | – | 28.1 µM | 10.8 µM | – | 4.94 µM | 15.3 µM | 3.33 µM | 3.28 µM | – | 29.5 µM | 17.8 µM | 16.1 µM
CCOC(=O)/C(C#N)=C/c1ccc2c(-c3c(OCC)ccc4cc(/C=C(\C#N)C(=O)OCC)ccc34)c(OCC)ccc2c1 | – | > 100 µM | > 100 µM | – | > 100 µM | > 100 µM | > 100 µM | > 100 µM | – | > 100 µM | > 100 µM | > 100 µM
CN(C)c1nc(N(C)C)nc(N(C)C)n1 | > 147 µM | > 150 µM | > 150 µM | > 148 µM | > 150 µM | > 150 µM | > 150 µM | > 150 µM | – | > 150 µM | > 150 µM | > 150 µM
CN(C)c1ccc(-c2cc(=O)c3ccccc3[nH]2)cc1 | > 100 µM | > 100 µM | > 100 µM | > 100 µM | > 100 µM | – | > 100 µM | > 100 µM | – | > 100 µM | – | –
Cn1c(=O)oc2cc(C(=O)CSC(=S)N3CCCCCC3)ccc21 | – | > 100 µM | 36.7 µM | – | > 100 µM | > 100 µM | > 100 µM | > 100 µM | – | > 100 µM | > 100 µM | > 100 µM
CCCCCCCCCOC(=O)c1cnc(Cl)cn1 | – | 41.6 µM | 86.1 µM | – | 36.1 µM | > 100 µM | 36.9 µM | 33.9 µM | – | 33.5 µM | 33.8 µM | 68 µM
NC(N)=NCCCC(N=c1c2ccccc2n(O)c2ccccc12)C(=O)O (configuration not stated) | > 100 µM | > 100 µM | – | > 100 µM | > 100 µM | > 100 µM | > 100 µM | > 100 µM | – | > 100 µM | – | –
Brc1cccc(/C=C/CN2CCN(CCOC(c3ccccc3)c3ccccc3)CC2)c1 | – | 40.8 µM | 24.2 µM | – | 29.3 µM | 34.9 µM | 32.3 µM | 27.5 µM | – | 33.1 µM | 27.4 µM | 52 µM
CCOC(=O)c1nc2cc(N3CCOCC3)c(F)cc2[nH]c1=O | – | > 100 µM | > 100 µM | – | > 100 µM | > 100 µM | > 100 µM | > 100 µM | – | > 100 µM | > 100 µM | > 100 µM
C=CC1(C)CCC(C(C)C(=O)C(C=C(C)C)OC(C)=O)C12C(=O)Oc1ccccc1C2=O (configuration not stated) | > 100 µM | > 100 µM | > 100 µM | > 100 µM | > 100 µM | > 100 µM | > 100 µM | > 100 µM | – | > 100 µM | – | –
CCOC(=O)CN1CCNCCN(CC(=O)OCC)CCNCC1 | – | > 100 µM | > 100 µM | – | > 100 µM | > 100 µM | > 100 µM | > 100 µM | – | > 100 µM | > 100 µM | > 100 µM
Cc1[nH]c2ncn3nc(C(Cl)(Cl)Cl)nc3c2c1Cc1ccccc1 | – | > 100 µM | > 100 µM | – | > 100 µM | > 100 µM | > 100 µM | > 100 µM | – | > 100 µM | > 100 µM | > 100 µM
CC(=O)OCC1OC(On2ccccc2=S)C(OC(C)=O)C(OC(C)=O)C1OC(C)=O (configuration not stated) | – | > 100 µM | > 100 µM | – | > 100 µM | > 100 µM | > 100 µM | > 100 µM | – | > 100 µM | > 100 µM | > 100 µM
CCOC(=O)c1cc2cc(N(C(C)=O)C(C)=O)ccc2s1 | – | 55.9 µM | 67.9 µM | – | 55.3 µM | > 100 µM | 71.2 µM | 59.6 µM | – | 62.3 µM | > 100 µM | 37.6 µM
CNC(=S)/C(=N\Nc1nc[nH]c1C(N)=O)C(N)=S | – | > 100 µM | > 100 µM | – | > 91.7 µM | > 31.6 µM | 18.9 µM | > 82.8 µM | – | 61.8 µM | 34.9 µM | > 81.8 µM
O=C(O)CC(C(=O)O)c1ccccc1[N+](=O)[O-] (configuration not stated) | – | > 100 µM | > 100 µM | – | > 100 µM | > 100 µM | > 100 µM | > 100 µM | – | > 100 µM | > 100 µM | > 100 µM
COc1ccc2c(c1)C(N)CC2=O (configuration not stated) | – | > 100 µM | > 100 µM | – | > 100 µM | > 100 µM | > 100 µM | > 100 µM | – | > 100 µM | > 100 µM | > 100 µM
Cc1ccc(C)c(NC(=O)C(=O)C2C(=O)C3=C(CC2(C)C)Nc2ccccc2S3)c1 (configuration not stated) | – | > 100 µM | > 100 µM | – | > 100 µM | > 100 µM | > 100 µM | > 100 µM | – | > 100 µM | > 100 µM | > 100 µM
